Experiments:
Type in all cases: functional
Plasmodium cynomolgi [1] = assay: Cures in Plasmodium cynomolgi infected Rhesus monkeys (Macaca mulatta) at 1.0 mg/kg dose; Cures 2 of 2
Mus musculus [2] = assay: Evaluated for number of toxic deaths occurring on day 2-5 after infection with Plasmodium berghei in mice (Mus musculus) at dose 640 mg/kg
Mus musculus [3] = assay: Evaluated for number of cures against Plasmodium berghei in mice (Mus musculus) (surviving 60 days) at dose 320 mg/kg
Plasmodium cynomolgi [4] = assay: Cures in Plasmodium cynomolgi infected Rhesus monkeys (Macaca mulatta) at 0.316 mg/kg dose; Cured 2 of 2
Mus musculus [5] = assay: Evaluated for number of cures against Plasmodium berghei in mice (Mus musculus) (surviving 60 days) at dose 10 mg/kg
Mus musculus [6] = assay: Evaluated for number of cures against Plasmodium berghei in mice (Mus musculus) (surviving 60 days) at dose 40 mg/kg
Mus musculus [7] = assay: Evaluated for number of cures against Plasmodium berghei in mice (Mus musculus) (surviving 60 days) at dose 20 mg/kg
Plasmodium cynomolgi [8] = assay: Cures in Plasmodium cynomolgi infected Rhesus monkeys (Macaca mulatta) at 0.1 mg/kg dose; Cured 0 of 1
Mus musculus [9] = assay: Evaluated for number of cures against Plasmodium berghei in mice (Mus musculus) (surviving 60 days) at dose 5 mg/kg
Mus musculus [10] = assay: Evaluated for number of cures against Plasmodium berghei in mice (Mus musculus) (surviving 60 days) at dose 160 mg/kg
Mus musculus [11] = assay: Evaluated for number of cures against Plasmodium berghei in mice (Mus musculus) (surviving 60 days) at dose 80 mg/kg
Mus musculus [12] = assay: Evaluated for number of cures against Plasmodium berghei in mice (Mus musculus) (surviving 60 days) at dose 640 mg/kg
Mus musculus [13] = assay: Evaluated for number of toxic deaths occurring on day 2-5 after infection with Plasmodium berghei in mice (Mus musculus) at dose 320 mg/kg
Plasmodium cynomolgi [14] = assay: Cures in Plasmodium cynomolgi infected Rhesus monkeys (Macaca mulatta) at 0.1 mg/kg dose; Cured 0 of 2
Plasmodium cynomolgi [15] = assay: Cures against Plasmodium cynomolgi infected Rhesus monkeys (Macaca mulatta) at 0.316 mg/kg dose; cured 0 of 2
Mus musculus [16] = assay: Evaluated for the change in mean survival time over controls against Plasmodium berghei in mice (Mus musculus) at dose 80 mg/kg
Plasmodium cynomolgi [17] = assay: Cures in Plasmodium cynomolgi infected Rhesus monkeys (Macaca mulatta) at 1.0 mg/kg dose; Cured 1 of 2
Mus musculus [18] = assay: Evaluated for number of toxic deaths occurring on day 2-5 after infection with Plasmodium berghei in mice (Mus musculus) at dose 160 mg/kg
Mus musculus [19] = assay: Evaluated for number of cures against Plasmodium berghei yoelii in rodents at peroral dose 10 mg/kg; 2/20; settings: route oral
Mus musculus [20] = assay: Evaluated for the change in mean survival time over controls against Plasmodium berghei in mice (Mus musculus) at dose 320 mg/kg
Mus musculus [21] = assay: Evaluated for the change in mean survival time over controls against Plasmodium berghei in mice (Mus musculus) at dose 40 mg/kg
Plasmodium cynomolgi [22] = assay: Number of relapses in Plasmodium cynomolgi infected Rhesus monkeys (Macaca mulatta) at 1.0 mg/kg dose
Mus musculus [23] = assay: Evaluated for number of toxic deaths against Plasmodium berghei yoelii in mice (Mus musculus) at subcutaneous dose of 40 mg/kg
Mus musculus [24] = assay: Evaluated for number of cures against Plasmodium berghei yoelii in rodents at subcutaneous dose 10 mg/kg; 5/30
Mus musculus [25] = assay: Evaluated for number of cures against Plasmodium berghei yoelii in rodents at subcutaneous dose 40 mg/kg; 7/30
Plasmodium cynomolgi [26] = assay: Number of relapses in Plasmodium cynomolgi infected Rhesus monkeys (Macaca mulatta) at 0.316 mg/kg dose
Mus musculus [27] = assay: Evaluated for the change in mean survival time over controls against Plasmodium berghei in mice (Mus musculus) at dose 160 mg/kg
Plasmodium cynomolgi [28] = assay: Relapses in Plasmodium cynomolgi infected Rhesus monkeys (Macaca mulatta) at 0.1 mg/kg dose
Mus musculus [29] = assay: Evaluated for number of cures against Plasmodium berghei yoelii in rodents at peroral dose 40 mg/kg; 7/20; settings: route oral
Mus musculus [30] = assay: Evaluated for number of cures against Plasmodium berghei yoelii in rodents at subcutaneous dose 160 mg/kg; 8/30
Mus musculus [31] = assay: Evaluated for number of cures against Plasmodium berghei yoelii in mice (Mus musculus) at peroral dose 160 mg/kg; 19/20; settings: route oral
Mus musculus [32] = assay: Evaluated for number of cures against Plasmodium berghei yoelii in rodents at peroral dose 2.5 mg/kg; 0/5; settings: route oral
Mus musculus [33] = assay: Evaluated for number of toxic deaths against Plasmodium berghei yoelii in rodents at subcutaneous dose of 160 mg/kg
Mus musculus [34] = assay: Evaluated for the change in mean survival time over controls against Plasmodium berghei in mice (Mus musculus) at dose 20 mg/kg
Mus musculus [35] = assay: Evaluated for number of cures against Plasmodium berghei yoelii in rodents at subcutaneous dose 2.5 mg/kg; 0/5
Mus musculus [36] = assay: Evaluated for the change in mean survival time over controls against Plasmodium berghei in mice (Mus musculus) at dose 640 mg/kg
Plasmodium cynomolgi [37] = assay: Cures against Plasmodium cynomolgi infected Rhesus monkeys (Macaca mulatta) at 1.0 mg/kg; cured 0 of 2
Mus musculus [38] = assay: Evaluated for number of cures against Plasmodium berghei yoelii in rodents at peroral dose 10 mg/kg; 0/5; settings: route oral
Mus musculus [39] = assay: Evaluated for number of cures against Plasmodium berghei yoelii in mice (Mus musculus) at peroral dose 160 mg/kg; Number of tested 5; settings: route oral
Mus musculus [40] = assay: Evaluated for number of cures against Plasmodium berghei yoelii in mice (Mus musculus) at subcutaneous dose 10 mg/kg; 0/15
Mus musculus [41] = assay: Evaluated for number of cures against Plasmodium berghei yoelii in rodents at subcutaneous dose 160 mg/kg; 5/15
Mus musculus [42] = assay: Evaluated for number of cures against Plasmodium berghei yoelii in mice (Mus musculus) at peroral dose 40 mg/kg; 0/5; settings: route oral
Mus musculus [43] = assay: Evaluated for number of cures against Plasmodium berghei yoelii in mice (Mus musculus) at subcutaneous dose 40 mg/kg; 1/15

| SMILES | No. of deaths (Mus musculus [2]) | No. of cures (Mus musculus [3]) | No. of cures (Mus musculus [12]) | No. of cures (Plasmodium cynomolgi [14]) | No. of cures (Plasmodium cynomolgi [15]) | Change in MST (Mus musculus [16]) | No. of cures (Plasmodium cynomolgi [17]) | Change in MST (Mus musculus [20]) | Change in MST (Mus musculus [21]) | No. of relapses (Plasmodium cynomolgi [22]) | No. of deaths (Mus musculus [23]) | Change in MST (Mus musculus [27]) | No. of relapses (Plasmodium cynomolgi [28]) | No. of deaths (Mus musculus [33]) | Change in MST (Mus musculus [36]) | other results |
| --- | --- | --- | --- | --- | --- | --- | --- | --- | --- | --- | --- | --- | --- | --- | --- | --- |
| COc1cc(NC(C)CCCN)c2nccc(C)c2c1Oc1cccc(C(F)(F)F)c1 (configuration not stated) | 4 | 5 | 1 |  |  |  |  |  |  |  |  |  |  |  |  | No. of cures (Plasmodium cynomolgi [1]): 2; No. of cures (Plasmodium cynomolgi [4]): 2; No. of cures (Mus musculus [5]): 3; No. of cures (Mus musculus [6]): 5; No. of cures (Mus musculus [7]): 5; No. of cures (Plasmodium cynomolgi [8]): 0; No. of cures (Mus musculus [9]): 1; No. of cures (Mus musculus [10]): 5; No. of cures (Mus musculus [11]): 5 |
| COc1cc(NC(C)CCCN)c2ncccc2c1 (configuration not stated) [PRIMAQUINE] | 5 |  |  | 0 | 0 | 9 | 1 |  |  |  |  |  |  |  |  | No. of deaths (Mus musculus [13]): 5; No. of deaths (Mus musculus [18]): 2 |
| COc1cc(NC(C)CSCCN)c2nccc(C)c2c1Oc1cccc(C(F)(F)F)c1 (configuration not stated) | 1 | 1 | 2 | 0 | 0 | 6.6 | 1 | 9.6 | 2 | 18 | 2 | 6.8 | 8 | 3 | 12.3 | No. of cures (Mus musculus [19]): 2; No. of cures (Mus musculus [24]): 5; No. of cures (Mus musculus [25]): 7; No. of relapses (Plasmodium cynomolgi [26]): 28; No. of cures (Mus musculus [29]): 7; No. of cures (Mus musculus [30]): 8; No. of cures (Mus musculus [31]): 19; No. of cures (Mus musculus [32]): 0; Change in MST (Mus musculus [34]): 3; No. of cures (Mus musculus [35]): 0 |
| COc1cc(NCC(C)SCCN)c2nccc(C)c2c1Oc1cccc(C(F)(F)F)c1 (configuration not stated) |  | 1 |  | 0 |  | 1.5 |  | 6.5 | 0.5 | 7 | 1 | 4.5 | 7 | 1 | 9.7 | No. of cures (Plasmodium cynomolgi [37]): 0; No. of cures (Mus musculus [38]): 0; No. of cures (Mus musculus [39]): 0; No. of cures (Mus musculus [40]): 0; No. of cures (Mus musculus [41]): 5; No. of cures (Mus musculus [42]): 0; No. of cures (Mus musculus [43]): 1 |
